Measurements: publication PMC4113800 (Marine Drugs, 2014)

What was measured:
P-gp = target: T1, P-gp (Homo sapiens, UniProt P08183); type: cell-based; conditions: compound or verapamil 20 μM vs PBS; calcein AM […]; SW620 Ad300; note: calcein AM 0.25 µM
T1 construct: The drug-resistant P-gp over-expressing daughter cell line SW620 Ad300 was established by stepwise selection; endogenous in cells; host or cells: SW620 Ad300 (human colon cancer, doxorubicin-selected)
Procedure: (§1) Flow cytometry based assays were used to measure the ability of natural or synthetic compounds to inhibit P-gp, BCRP or MRP1 mediated accumulation and/or efflux of fluorescent reagents. […] For the calcein AM accumulation assays, cells were directly analyzed by flow cytometry.
(§2) Intracellular fluorescence intensity was measured on a BD FACSCanto™ II flow cytometer (Becton Dickinson, San Jose, CA, USA) and data were analyzed through FlowJo (Tree Star, Inc., Ashland, OR, USA). […] Mitoxantrone fluorescence was detected with a 638 nm […] laser and a 660/20 nm band-pass filter. At least 10,000 events were collected for all of the flow cytometry experiment. By increasing threshold value on forward scatter versus side scatter, debris was eliminated. Dead cells were excluded based on propidium iodide staining. Data are means ± SEM of at least three independent experiments performed in duplicate.

[1] = MTT cytotoxicity assay, parental SW620 cells; type: cell-based; conditions: human
Procedure: (§3) The MTT assay was modified based on that previously described, using adherent cell lines SW620 and NCI-H460, and their P-gp over-expressing daughter cell line SW620 Ad300 and BCRP over-expressing daughter cell line NCI-H460/MX20, respectively. Briefly, cells were harvested with trypsin and added into 96-well microtitre assay plates at 2000 cells/well, followed by 18 h incubation at 37 °C with 5% CO2. […] Control wells were treated with 5% aqueous DMSO. […] 68 h later, 20 μL MTT (4 mg/mL in PBS) was dispensed into each well (final concentration 0.40 mg/mL), and plates were incubated for a further 4 h at 37 °C with 5% CO2. Finally medium was removed and precipitated formazan crystals were dissolved in 100% DMSO. The absorbance of each well was measured at 580 nm with a PowerWave XS Microplate Reader from Bio-Tek Instruments Inc. (Vinooski, VT, USA).
(§4) All experiments were performed in duplicate.

BCRP = target: T2, BCRP (Homo sapiens, UniProt Q9UNQ0); assay: cell-based; conditions: for FAR (fluorescence arbitrary ratio), mitoxantrone fluorescence: compound 20 μM vs PBS; for FAR (fluorescence arbitrary ratio), mitoxantrone fluorescence / % FTC (inhibition of mitoxantrone efflux normalized to 10 μM FTC): NCI-H460/MX20; for % FTC (inhibition of mitoxantrone efflux normalized to 10 μM FTC): compound 20 μM
T2 sequence (Q9UNQ0 1-655): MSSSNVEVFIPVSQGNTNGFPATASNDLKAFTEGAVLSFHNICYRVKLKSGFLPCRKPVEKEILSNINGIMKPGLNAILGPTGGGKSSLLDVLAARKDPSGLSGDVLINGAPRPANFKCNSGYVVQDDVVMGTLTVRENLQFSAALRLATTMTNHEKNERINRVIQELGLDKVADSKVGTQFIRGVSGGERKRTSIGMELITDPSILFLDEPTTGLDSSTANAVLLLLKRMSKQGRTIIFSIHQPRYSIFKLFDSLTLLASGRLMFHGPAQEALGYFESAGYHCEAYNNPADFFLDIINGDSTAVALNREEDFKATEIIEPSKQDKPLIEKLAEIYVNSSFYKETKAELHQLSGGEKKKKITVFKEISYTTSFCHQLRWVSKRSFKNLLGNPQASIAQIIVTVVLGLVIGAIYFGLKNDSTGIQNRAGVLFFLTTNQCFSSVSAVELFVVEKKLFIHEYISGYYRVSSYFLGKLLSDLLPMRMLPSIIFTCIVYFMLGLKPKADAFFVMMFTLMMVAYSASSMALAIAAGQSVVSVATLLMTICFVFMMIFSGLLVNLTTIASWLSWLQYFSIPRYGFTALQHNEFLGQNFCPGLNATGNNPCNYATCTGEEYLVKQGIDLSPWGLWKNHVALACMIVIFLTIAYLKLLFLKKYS
Procedure: as §1, §2

[2] = MTT cytotoxicity assay, P-gp over-expressing SW620 Ad300 cells; type: cell-based; conditions: human
Procedure: as §3, §4

SW620 Ad300 cells = assay: Reversal of P-gp mediated doxorubicin resistance (MTT assay); type: cell-based, human
Procedure: as §3, §4

NCI-H460 cells = assay: [3H]-mitoxantrone accumulation and efflux in parental NCI-H460 cells; type: cell-based, human; conditions: 11 at 10 or 30 μM, FTC 5.0 μM
From the text: […]. […] […]

T1 sequence (P08183 whole entry): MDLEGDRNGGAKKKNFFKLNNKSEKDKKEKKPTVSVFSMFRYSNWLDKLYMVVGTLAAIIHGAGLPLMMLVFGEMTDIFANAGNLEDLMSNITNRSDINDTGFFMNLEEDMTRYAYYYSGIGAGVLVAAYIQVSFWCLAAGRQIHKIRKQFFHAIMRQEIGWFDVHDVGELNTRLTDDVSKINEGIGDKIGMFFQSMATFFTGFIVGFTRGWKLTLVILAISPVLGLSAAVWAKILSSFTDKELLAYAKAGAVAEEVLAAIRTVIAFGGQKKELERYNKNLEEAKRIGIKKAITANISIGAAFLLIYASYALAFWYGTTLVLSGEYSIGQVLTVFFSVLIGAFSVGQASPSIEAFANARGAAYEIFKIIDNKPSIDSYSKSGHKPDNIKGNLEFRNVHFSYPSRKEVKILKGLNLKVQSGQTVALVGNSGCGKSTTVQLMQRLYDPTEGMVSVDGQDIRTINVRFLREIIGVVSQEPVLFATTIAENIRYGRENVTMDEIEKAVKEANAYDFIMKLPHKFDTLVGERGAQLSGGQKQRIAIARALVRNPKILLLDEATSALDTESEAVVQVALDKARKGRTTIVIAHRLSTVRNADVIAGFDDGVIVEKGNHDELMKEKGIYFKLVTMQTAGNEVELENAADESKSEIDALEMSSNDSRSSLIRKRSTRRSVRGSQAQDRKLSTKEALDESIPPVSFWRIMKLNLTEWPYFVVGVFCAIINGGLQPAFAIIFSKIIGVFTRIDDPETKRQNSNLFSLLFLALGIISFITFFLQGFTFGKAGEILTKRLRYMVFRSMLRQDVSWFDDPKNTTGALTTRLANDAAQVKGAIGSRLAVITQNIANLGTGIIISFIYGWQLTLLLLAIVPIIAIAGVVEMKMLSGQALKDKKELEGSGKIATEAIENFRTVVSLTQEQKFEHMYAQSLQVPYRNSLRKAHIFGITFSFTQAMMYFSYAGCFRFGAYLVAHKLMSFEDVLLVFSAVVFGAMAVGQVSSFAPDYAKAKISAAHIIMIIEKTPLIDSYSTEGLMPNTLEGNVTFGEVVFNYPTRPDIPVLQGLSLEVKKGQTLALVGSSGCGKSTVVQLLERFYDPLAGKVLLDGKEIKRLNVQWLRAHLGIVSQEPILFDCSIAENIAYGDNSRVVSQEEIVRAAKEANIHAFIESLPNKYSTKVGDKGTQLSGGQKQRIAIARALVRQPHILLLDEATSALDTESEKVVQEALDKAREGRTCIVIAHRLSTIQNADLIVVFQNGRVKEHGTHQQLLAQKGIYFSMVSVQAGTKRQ

SMILES	FAR (fluorescence arbitrary ratio), intracellular calcein fluorescence (P-gp) [fold]	IC50 at 68 h [1] [µM]	FAR (fluorescence arbitrary ratio), mitoxantrone fluorescence (BCRP) [fold]	% FTC (inhibition of mitoxantrone efflux normalized to 10 μM FTC) (BCRP) [% FTC]	IC50 at 68 h [2] [µM]	further results
CCOCN1C(=O)C(c2ccc(O)cc2)=C(c2ccc(O)cc2)C1(O)C(=O)OC (stereo not shown) [Compound 4, ianthellidone D]	0.60	> 30	1.15	6.66	> 30	
COC(=O)c1c(Br)c(Br)c(Br)n1CC(=O)c1ccc(OC)cc1 [Compound 16]			1.20	5.45		
COC(=O)c1cccn1CC(=O)c1ccc(OC)cc1 [Compound 13]			1.00	< 1.00		
COC(=O)c1cc(Br)cn1CC(=O)c1ccc(OC)cc1 [Compound 14]			1.03	< 1.00		
COC(=O)c1c(-c2ccc(OC)cc2)c(-c2ccc(OC)cc2)cn1CC(=O)c1ccc(OC)cc1 [Compound 19, 4′,4″-dimethyl-lamellarin O]						IC50 (BCRP): > 100 µM
COC(=O)C1(O)C(c2ccc(O)cc2)=C(c2ccc(O)cc2)C(=O)N1CC(=O)c1ccc(OC)cc1 (stereo not shown) [Compound 6, ianthellidone F]	0.61	> 30	1.21	9.79	> 30	
COC(=O)c1ccc(Br)n1CC(=O)c1ccc(OC)cc1 [Compound 15]			0.97	< 1.00		
COC(=O)C1(OC)OC(=O)C(c2ccc(O)cc2)=C1c1ccc(O)cc1 (stereo not shown) [Compound 8, ianthellidone H]	0.60	> 30	1.13	6.06	> 30	
COc1ccc(CCN(C)CCCC(C#N)(c2ccc(OC)c(OC)c2)C(C)C)cc1OC (stereo not shown) [verapamil, reference compound]						DMF (dose-modifying factor), increase in sensitivity towards doxorubicin (SW620 Ad300 cells; verapamil […]): 8.8 fold
COC(=O)c1[nH]cc(-c2ccc(O)cc2)c1-c1ccc(O)cc1 [Compound 12, lamellarin Q]	0.54	> 30	1.41	18.6	> 30	
COc1cccc2c1C(=O)c1c(O)c3c(c(O)c1C2=O)C[C@@](O)(C(=O)CO)C[C@@H]3O[C@H]1C[C@H](N)[C@H](O)[C@H](C)O1 [doxorubicin, reference compound]						IC50 (SW620 Ad300 cells; Homo sapiens, doxorubicin alone): 4.44 ± 0.21 µM
COC(=O)C1(O)NC(=O)C(c2ccc(O)cc2)=C1c1ccc(O)cc1 (stereo not shown) [Compound 1, ianthellidone A]	0.63	> 30	0.97	<1.00	> 30	
COCN1C(=O)C(c2ccc(O)cc2)=C(c2ccc(O)cc2)C1(O)C(=O)OC (stereo not shown) [Compound 3, ianthellidone C]	0.61	> 30	1.12	5.60	> 30	
COC(=O)c1c(-c2ccc(O)cc2)c(-c2ccc(O)cc2)cn1CC(=O)c1ccc(O)cc1 [Compound 9, lamellarin O1]	0.61	> 30	1.23	10.6	> 30	
CCOC(=O)CN1C(=O)C(c2ccc(O)cc2)=C(c2ccc(O)cc2)C1(O)C(=O)OC (stereo not shown) [Compound 5, ianthellidone E]	0.59	> 30	1.14	6.20	> 30	
COC(=O)c1c(-c2ccc(O)cc2)c(-c2ccc(O)cc2)cn1CC(=O)c1ccc(OC)cc1 [Compound 11, lamellarin O]		22			22.3	effect on intracellular [3H]-mitoxantrone levels, accumulation phase (NCI-H460 cells): neither 11 (10 or 30 μM) nor FTC (5.0 μM) significantly changed intracellular [^3H]-mitoxantrone levels; effect on intracellular [3H]-mitoxantrone levels, efflux phase (NCI-H460 cells): Neither 11 nor FTC had a significant effect; DMF (dose-modifying factor), increase in sensitivity towards doxorubicin (SW620 Ad300 cells; lamellarin O (11) 5.0 μM): 1.5 fold; DMF (dose-modifying factor), increase in sensitivity towards doxorubicin (SW620 Ad300 cells; lamellarin O (11) 10 μM): 3.1 fold; DMF (dose-modifying factor), increase in sensitivity towards doxorubicin (SW620 Ad300 cells; lamellarin O (11) […] μM): 4.8 fold
COC(=O)C1(O)OC(=O)C(c2ccc(O)cc2)=C1c1ccc(O)cc1 (stereo not shown) [Compound 7, ianthellidone G]	0.67	> 30	1.09	4.06	> 30	
CCOC1(C(=O)OC)NC(=O)C(c2ccc(O)cc2)=C1c1ccc(O)cc1 (stereo not shown) [Compound 2, ianthellidone B]	0.52	> 30	1.07	3.13	> 30	
COC(=O)c1c(-c2ccc(O)cc2)c(-c2ccc(O)cc2)cn1CC(O)c1ccc(O)cc1 (stereo not shown) [Compound 10, lamellarin O2]	0.60	> 30	1.11	5.13	> 30	
